Measurements: US7977379B2, “Method for angiogenesis inhibition or immunostimulation” (priority 2002, dated 2011)

Assays:
[1] = test system: angiogenesis induced by means of MATRIGEL matrix (heparin, a-FGF); assay: Test Example 1: angiogenesis induced by […] matrix transplanted subcutaneously (method of Passaniti et al); type: in vivo, C57BL/6 female mice; settings: for angiogenesis inhibition effect (in words): MATRIGEL weight and hemoglobin vs control group; for MATRIGEL Matrix weight / Quantity of hemoglobin: sixth day, n=5, mean±SE; for MATRIGEL Matrix weight: freeze-dried
Source text: Angiogenesis inhibition action of anhydrous glutamic acid, its derivatives, and various processed materials containing them concerning the present invention was examined by degree of angiogenesis induced by means of […]™ matrix (made by Becton Dikinson Labware Company, it is “cell culture backing material”, following “[…]”.) according to a method of Passaniti et al (Laboratory Invest., Vol. 67, Page 519-528, 1992).
An example of the […] matrix is shown with the following: BD Matrigel Basement Membrane Matrix is a solubilized basement membrane preparation extracted from the Engelbreth-Holm-Swarm (EHS) mouse sarcoma, a tumor rich in ECM proteins. Its major component is laminin, followed by collagen IV, heparan sulfate proteoglycans, entactin and nidogen.35 It also contains TGF-β fibroblast growth factor, tissue plasminogen activator36 and other growth factors which occur naturally in the EHS tumor. At room temperature, BD Matrigel Matrix polymerizes to produce biologically active matrix material resembling the mammalian cellular basement membrane.
More specifically, normal mice (5 mice/1 group) were used after breeding C57BL/6 female mice (5 week old, purchased from Charles River JAPAN, Inc.) preliminarily for one week. While cooling test materials as shown in the following, each of the test materials 0.5 ml were transplanted to subcutaneous of abdomen of the mice. […] was taken out on the sixth day after transplantation, and state of angiogenesis was observed. In addition, the […] was freeze-dried, and it was estimated the weight. Furthermore, pure water 1 ml was added to the […]. After homogenizing by Polytron and centrifuging at 2000 rpm for five minutes, supernatant was filtrated through filter with 0.2 μm and hemoglobin dosage was measured by using Hemoglobin-TestWako™ (made by Wako Pure Chemical Industries, Ltd.).
Group 0 of nothing addition: […]
Control group: […], heparin (64 units), Acidic Fibroblast Growth Factor (it is abbreviated to a-FGF as follows.) (1 ng/ml)
Group 1 of test material addition: […], heparin (64 units), a-FGF (1 ng/ml), sample 3 (800 μg/ml)
Group 2 of test material addition: […], heparin (64 units), a-FGF (1 ng/ml), sample 3 (400 μg/ml)
Group 3 of test material addition: […], heparin (64 units), a-FGF (1 ng/ml), sample 3 (200 μg/ml)
Group 4 of test material addition: […], heparin (64 units), a-FGF (1 ng/ml), sample 4 (800 μg/ml)
Group 5 of test material addition: […], heparin (64 units), a-FGF (1 ng/ml), sample 1 (600 μg/ml)
Group 6 of test material addition: […], heparin (64 units), a-FGF (1 ng/ml), sample 2 (800 μg/ml)
Group 7 of test material addition: […], heparin (64 units), a-FGF (1 ng/ml), sample1+sample 3 (for each 200 μg/ml)
Group 8 of test material addition: […], heparin (64 units), a-FGF (1 ng/ml), sample 5 (600 μg/ml)
Group 9 of test material addition: […], heparin (64 units), a-FGF (1 ng/ml), reference sample 1 (800 μg/ml)
As is apparent from each table, in control group, angiogenesis was promoted remarkably and weight of […] and hemoglobin dosage were increased compared with a group 0 of nothing addition. […] However, the angiogenesis inhibition effect was small with reference sample 1 (hot water extract of an agaricus mushroom).

[2] = test system: angiogenesis induced by means of MATRIGEL matrix (heparin, a-FGF); assay: Test Example 4: angiogenesis induced by […] matrix (same method as test example 1); type: in vivo, C57BL/6 female mice; settings: for angiogenesis inhibition effect (in words): MATRIGEL weight and hemoglobin vs control group; for MATRIGEL weight / Quantity of hemoglobin: sixth day, n=5, mean±SE
Description: More specifically, normal mice (5 mice/1 group) were used after breeding C57BL/6 female mice (5 week old, purchased from Charles River JAPAN, Inc.) preliminarily for one week. While cooling test materials as shown in the following, each of the test materials 0.5 ml were transplanted to subcutaneous of abdomen of the mice. […] was taken out on the sixth day after transplantation, and state of angiogenesis was observed. In addition, the […] was freeze-dried, and it was weighed. […] Group 0 of nothing addition: […]

[3] = material 800 μg/mL in MATRIGEL with heparin and a-FGF
[4] = material 200 μg/mL in MATRIGEL with heparin and a-FGF
[5] = material 400 μg/mL in MATRIGEL with heparin and a-FGF

Row | Compound | angiogenesis inhibition effect (in words) [1] | MATRIGEL Matrix weight [1, 3] [mg] | Quantity of hemoglobin [1, 3] [mg] | angiogenesis inhibition effect (in words) [2] | MATRIGEL weight [2, 3] [mg] | Quantity of hemoglobin [2, 3] [mg/MATRIGEL] | further results
1 | Cl.NC(CCC(=O)O)C(=O)O (racemic) [sample 4, anhydrous DL-glutamate acid hydrochloride] | slightly low, but almost equal to sample 3 | 237.3 ± 30.1 | 13.0 ± 2.9 | – | – | – | –
2 | O=C1CCC(C(=O)O)N1.[Na] (racemic) [sample 9, DL-pyroglutamic acid sodium] | – | – | – | slightly low, but almost equal to sample 8 | 209.0 ± 30.8 | 15.8 ± 2.7 | –
3 | C[C@H](N)C(=O)O [alanine, reference compound] | – | – | – | not recognized | – | – | –
4 | O=C(O)[C@@H]1CCCN1 [proline, reference compound] | – | – | – | not recognized | – | – | –
5 | Cl.N[C@@H](CCC(=O)O)C(=O)O [sample 3, anhydrous L-glutamate acid hydrochloride] | excellent angiogenesis inhibition effect | 110.9 ± 11.4 | 3.9 ± 0.5 | – | – | – | MATRIGEL Matrix weight [1, 4]: 276.6 ± 27.6 mg; Quantity of hemoglobin [1, 4]: 21.5 ± 4.0 mg; MATRIGEL Matrix weight [1, 5]: 232.2 ± 52.7 mg; Quantity of hemoglobin [1, 5]: 15.5 ± 4.6 mg
6 | O=C1CC[C@@H](C(=O)O)N1.[Na] [sample 8, L-pyroglutamic acid sodium] | – | – | – | excellent angiogenesis inhibition effect | 121.5 ± 28.1 | 4.8 ± 1.2 | MATRIGEL weight [2, 4]: 265.3 ± 18.6 mg; Quantity of hemoglobin [2, 4]: 23.4 ± 2.0 mg/MATRIGEL; MATRIGEL weight [2, 5]: 190.2 ± 30.4 mg; Quantity of hemoglobin [2, 5]: 17.5 ± 3.6 mg/MATRIGEL
